Values of other authors as cited in article PMC11676910, “Manganese(II) Complexes with Non-Steroidal Anti-Inflammatory Drugs: Structure and Biological Activity” (International Journal of Molecular Sciences, 2024).
Like-named read-outs stand apart in the source and are kept apart here.

Assays:
[1] = target: bovine serum albumin (BSA) (Bos taurus, UniProt P02769); set-up: purchased Sigma–Aldrich Co; details: cited from earlier work
CT DNA = details: cited from earlier work
EB–DNA adduct (CT DNA) = details: cited from earlier work
[2] = set-up: concentration or dose not given beside the values; details: free NSAID; cited from earlier work
[3] = target: human serum albumin (HSA) (Homo sapiens, UniProt P02768); set-up: purchased Sigma–Aldrich Co; details: cited from earlier work
human serum albumin (HSA), sequence (P02768 25-609): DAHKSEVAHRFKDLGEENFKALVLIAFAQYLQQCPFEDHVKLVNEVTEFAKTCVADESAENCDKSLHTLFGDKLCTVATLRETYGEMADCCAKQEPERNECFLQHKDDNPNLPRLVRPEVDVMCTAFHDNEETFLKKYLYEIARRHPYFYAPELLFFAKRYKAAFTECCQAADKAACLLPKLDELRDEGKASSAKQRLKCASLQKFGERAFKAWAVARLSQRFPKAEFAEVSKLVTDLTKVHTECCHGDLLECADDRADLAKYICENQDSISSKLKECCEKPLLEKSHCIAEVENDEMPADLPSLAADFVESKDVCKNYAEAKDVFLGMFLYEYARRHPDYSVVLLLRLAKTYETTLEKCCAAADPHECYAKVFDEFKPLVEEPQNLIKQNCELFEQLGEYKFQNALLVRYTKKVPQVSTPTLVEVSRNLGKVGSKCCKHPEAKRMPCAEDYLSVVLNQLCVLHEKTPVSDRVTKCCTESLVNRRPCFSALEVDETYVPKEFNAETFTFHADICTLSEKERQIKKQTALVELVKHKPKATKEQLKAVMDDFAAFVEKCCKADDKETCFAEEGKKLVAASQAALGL

bovine serum albumin (BSA), sequence (P02769 25-607): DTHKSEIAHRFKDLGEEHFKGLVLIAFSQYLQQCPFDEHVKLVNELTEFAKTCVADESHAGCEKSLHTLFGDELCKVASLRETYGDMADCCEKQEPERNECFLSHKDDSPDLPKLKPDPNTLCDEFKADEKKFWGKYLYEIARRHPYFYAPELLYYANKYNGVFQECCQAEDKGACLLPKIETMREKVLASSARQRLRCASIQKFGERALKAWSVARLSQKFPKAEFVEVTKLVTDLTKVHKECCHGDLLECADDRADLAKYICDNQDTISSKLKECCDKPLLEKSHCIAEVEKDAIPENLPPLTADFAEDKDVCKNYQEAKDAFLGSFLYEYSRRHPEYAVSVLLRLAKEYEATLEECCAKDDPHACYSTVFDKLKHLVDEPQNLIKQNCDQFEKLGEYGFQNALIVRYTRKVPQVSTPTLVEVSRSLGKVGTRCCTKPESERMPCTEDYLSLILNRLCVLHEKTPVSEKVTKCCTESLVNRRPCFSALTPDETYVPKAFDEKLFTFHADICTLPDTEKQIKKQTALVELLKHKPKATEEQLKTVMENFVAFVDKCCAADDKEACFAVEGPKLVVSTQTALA

SMILES	BSA binding constant Κ(BSA) [1]	BSA quenching constant kq(BSA) [1]	ΔA/A0 (%) hyper-/hypo-chromism of UV band (CT DNA; first band listed in the cell)	Δλ (nm) shift of λmax (CT DNA; first band listed in the cell)	ΔA/A0 (%) hyper-/hypo-chromism of UV band (CT DNA; second band listed in the cell)	Δλ (nm) shift of λmax (CT DNA; second band listed in the cell) [nm]	EB–DNA fluorescence quenching ΔI/Io (%) (EB–DNA adduct (CT DNA))	Stern–Volmer constant KSV (EB–DNA) (EB–DNA adduct (CT DNA))	quenching constant kq of the EB–DNA fluorescence (EB–DNA adduct (CT DNA))	% ABTS radical scavenging activity (ABTS%) [2] [%]	HSA binding constant Κ(HSA) [3]	HSA quenching constant kq(HSA) [3]
O=C(O)c1ccccc1Nc1cccc(C(F)(F)F)c1 [Hfluf, flufenamic acid]	1.06 (±0.04) × 10^6 M^–1	1.83 (±0.20) × 10^13 M^–1s^–1	+40%	+10 nm	< −50%	0	67.0	6.34 (±0.30) × 10^5 M^–1	2.76 (±0.13) × 10^13 M^–1s^–1	64.57 ± 0.43	1.79 (±0.17) × 10^5 M^–1	1.86 (±0.21) × 10^12 M^–1s^–1
Cc1cccc(Nc2ccccc2C(=O)O)c1C [Hmef, mefenamic acid]	1.35 (±0.22) × 10^5 M^–1	2.78 (±0.20) × 10^13 M^–1s^–1	+10%	0 nm	–	–	80.0	1.58 (±0.06) × 10^5 M^–1	6.87 (±0.26) × 10^12 M^–1s^–1	66.32 ± 0.38	1.32 (±0.15) × 10^5 M^–1	7.13 (±0.34) × 10^12 M^–1s^–1
Cc1c(Cl)cccc1Nc1ccccc1C(=O)O [Htolf, tolfenamic acid]	1.60 (±0.14) × 10^5 M^–1	2.18 (±0.12) × 10^13 M^–1s^–1	+40%	+5 nm	< −50%	−2	74.0	1.15 (±0.04) × 10^6 M^–1	5.00 (±0.17) × 10^13 M^–1s^–1	59.43 ± 0.33	3.12 (±0.25) × 10^5 M^–1	6.10 (±0.38) × 10^12 M^–1s^–1
Cc1ccc(Cl)c(Nc2ccccc2C(=O)O)c1Cl [Na meclf, sodium meclofenamate]	1.78 (±0.11) × 10^6 M^–1	4.84 (±0.32) × 10^13 M^–1s^–1	−12%	−1 nm	+5%	−2	80.1	8.20 (±0.26) × 10^4 M^–1	3.57 (±0.11) × 10^12 M^–1s^–1	59.48 ± 0.06	1.05 (±0.03) × 10^6 M^–1	2.98 (±0.31) × 10^13 M^–1s^–1
